Assay results reported in EP4385997A1 (priority 2022, dated 2024).
Where no end group is shown, it is not given here.

System: Xylella fastidiosa DSM10026/ATCC35879

Substance: KWKLFKKIEKVGQNIRDGIIKAGPAVAVVGQATQIAK-NH2 (C-terminus assumed) [Cecropin A BR001]
- MIC (µM): 6.25 µM
- MIC (µg mL^-1): 25 µg/mL
